Our source for the overall response rate and OR values is patent US20090118350A1, “Biomarkers for Identifying Efficacy of Tegaserod in Patients with Chronic Constipation” (priority 2005, published 2009).

For this assay, the system named is patients with chronic constipation. Kind of assay: Response by serotonin transporter (SLC6A4) promoter insertion/deletion genotype. Particulars: for OR: tegaserod vs placebo. Type of assay: in vivo, human. An excerpt:
Two major classes of insertion/deletion polymorphisms have been characterized for the SLC6A4 gene, one in intron 2 and another in the promoter region. SLC6A4 is the serotonin transporter gene, also know as SERT or HTT. Camilleri and colleagues reported that SLC6A4 promoter insertion/deletion polymorphism was associated with colonic transit response following treatment with the serotonin 5-HT3 receptor antagonist alosetron. Camilleri M et al., Gastroenterology; 123 (2):425-32 (2002). […] The overall response rates for C16-C16 were 48% for tegaserod and 21% for placebo (OR=3.51, 95% CI: 1.67-7.41) compared to the C14-C14 homozygotes at 45% for tegaserod and 27% for placebo (OR=2.3, 95% CI: 0.93-5.69) and C14-C16 heterozygotes at 43% for tegaserod and 28% for placebo (OR=1.95; 95% CI: 1.12-3.41). Within a given treatment group, there was no statistically significant difference between response rates between the different genotypes.

In the case of `[H]/N=C(/NCCCCC)N/N=C/c1c[nH]c2ccc(OC)cc12` [tegaserod, Tegaserod], the overall response rate (serotonin transporter promoter polymorphism C14-C14 homozygotes) is listed as 45%, the overall response rate (serotonin transporter promoter polymorphism C14-C16 heterozygotes) amounted to 43% and the overall response rate (serotonin transporter promoter polymorphism C16-C16 homozygotes) is reported as 48%. The compound further came in with an OR (C14-C14 homozygotes) of 2.3, an OR (C14-C16 heterozygotes) of 1.95 and an OR (C16-C16 homozygotes) of 3.51.
